Data taken from patent US8741897B2, “Glucocorticoid mimetics, methods of making them, pharmaceutical compositions and uses thereof” (Boehringer Ingelheim Pharmaceuticals Inc., priority 2003, dated 2014).

System: glucocorticoid receptor function
Test: one or more of the above assays (GR binding and glucocorticoid receptor cell assays: aromatase, IL-6, TAT, MMTV-Luc, IL-8, ICAM-Luc)
Type: cell-based
Settings: assay not specified per compound
Procedure: B. Glucocorticoid Receptor Cell Assays
1. Induction of Aromatase in Fibroblasts (Cell Assay for Transactivation)
Dexamethasone, a synthetic ligand to the glucocorticoid receptor (GR), induces expression of aromatase in human foreskin fibroblast cells. The activity of aromatase is measured by the conversion of testosterone to estradiol in culture media.
On the day of the experiment, the media in the wells is replaced with fresh media. Cells are treated with test compounds to final concentrations of 10^−5 M to 10^−8 M, and testosterone to a final concentration of 300 ng/mL. Each well has a total volume of 100 μL. Samples are made in duplicates. Control wells include: (a) wells that receive testosterone only, and (b) wells that receive testosterone plus 2 μM of dexamethasone to provide maximum induction of aromatase. Plates are incubated at 37° C. overnight (15 to 18 hours), and supernatants are harvested at the end of incubation. […] The amount of estradiol is inversely proportional to the ELISA signals in each well. The extent of aromatase induction by test compounds is expressed as a relative percentage to dexamethasone. EC50 values of test compounds are derived by non-linear curve fitting.
2. Inhibition of IL-6 Production in Fibroblasts (Cell Assay for Transrepression)
Human foreskin fibroblast cells produce IL-6 in response to stimulation by proinflammatory cytokine IL-1.
On the next day, media in the wells is replaced with fresh media. Cells are treated with IL-1 (rhIL-1α, R&D Systems Cat. No. 200-LA) to a final concentration of 1 ng/mL, and with test compounds to final concentrations of 10^−5 M to 10^−8 M, in a total volume of 200 μL per well. Samples are done in duplicates. […] Positive control wells receive IL-1 only and represent maximum (or 100%) amount of IL-6 production. Plates are incubated at 37° C. overnight (15 to 18 hours), and supernatants are harvested at the end of incubation. IL-6 levels in the supernatants are determined by the ELISA kits for IL-6 (MedSystems Diagnostics GmbH, Vienna, Austria, Cat. No. BMS213TEN) according to manufacture's instructions. The extent of inhibition of IL-6 by test compounds is expressed in percentage relative to positive controls. IC50 values of test compounds are derived by non-linear curve fitting.
Evaluation of agonist or antagonist activity of compounds binding to the glucocorticoid receptor may be determined by any of the assays.
3. Modulation of Tyrosine Aminotransferase (TAT) Induction in Rat Hepatoma Cells
Testing of compounds for agonist or antagonist activity in induction of tyrosine aminotransferase (TAT) in rat hepatoma cells.
H4-II-E-C3 cells were incubated overnight in 96 well plates (20,000 cells/100 μL/well) in MEM medium containing 10% heat inactivated FBS and 1% nonessential amino acids. On the next day, cells were stimulated with the indicated concentrations of dexamethasone or test compound (dissolved in DMSO, final DMSO concentration 0.2%) for 18 hours. Control cells were treated with 0.2% DMSO. After 18 hours, the cells were lysed in a buffer containing 0.1% Triton X-100 and the TAT activity was measured in a photometric assay using tyrosine and alpha-ketoglutarate as substrates.
For measuring antagonist activity, the hepatoma cells were pre-stimulated by addition of dexamethasone (concentration ranges from 3×10^−9 M to 3×10^−8 M) shortly before the test compound was applied to the cells.
4. Modulation of MMTV-Luc Induction in HeLa Cells
Testing of compounds for agonist or antagonist activity in stimulation of MMTV-(mouse mammary tumor virus) promoter in HeLa cells.
Cells were cultured overnight in DMEM medium without phenol red, supplemented with 3% CCS (charcoal treated calf serum) and then transferred to 96 well plates (15,000 cells/100 μL/well).

SMILES | activity as agonists of the glucocorticoid receptor function in one or more of the above assays
COc1ccc(-c2cncnc2)cc1C(C)(C)CC(O)(Cn1ccc2c1CCCC2=O)C(F)(F)F (stereo not drawn) [1-[2-Hydroxy-4-(2-methoxy-5-pyrimidin-5-ylphenyl)-4-methyl-2-trifluoromethylpentyl]-1,5,6,7-tetrahydroindol-4-one] | agonists
CC(C)C(O)(Cc1cc2ccncc2[nH]1)CC(C)(C)c1cc(Cl)cc2c1OCC2 (stereo not drawn) [5-(5-Chloro-2,3-dihydrobenzofuran-7-yl)-2,5-dimethyl-3-(1H-pyrrolo[2,3-c]pyridin-2-ylmethyl)hexan-3-ol] | agonists
COc1cc(F)ccc1C(C)(C)CC(O)(Cc1cc2c(C)nccc2[nH]1)C(F)(F)F (stereo not drawn) [1,1,1-Trifluoro-4-(4-fluoro-2-methoxyphenyl)-4-methyl-2-(4-methyl-1H-pyrrolo[3,2-c]pyridin-2-ylmethyl)pentan-2-ol] | potent agonists
CC(C)(CC(O)(Cc1cc2cnccc2[nH]1)C(F)(F)F)c1cccc(-c2cccnc2)c1 (stereo not drawn) [1,1,1-Trifluoro-4-methyl-4-(3-pyridin-3-ylphenyl)-2-(1H-pyrrolo[3,2-c]pyridin-2-ylmethyl)pentan-2-ol] | potent agonists
COc1ccc(Br)cc1C(C)(C)CC(O)(Cc1cc2cc(OC(C)C)ncc2[nH]1)C(F)(F)F (stereo not drawn) [4-(5-Bromo-2-methoxyphenyl)-1,1,1-trifluoro-2-(5-isopropoxy-1H-pyrrolo[2,3-c]pyridin-2-ylmethyl)-4-methylpentan-2-ol] | potent agonists
COc1ccc2[nH]c(CC(O)(CC(C)(C)c3cc(Cl)cc4c3OCC4)C(F)(F)F)cc2n1 (stereo not drawn) [4-(5-Chloro-2,3-dihydrobenzofuran-7-yl)-1,1,1-trifluoro-2-(5-methoxy-1H-pyrrolo[3,2-b]pyridin-2-ylmethyl)-4-methylpentan-2-ol] | potent agonists
Cc1ccc(F)cc1C(C)(C)CC(O)(Cc1cc2cc(-c3ccccc3)ncc2[nH]1)C(C)(C)C (stereo not drawn) [5-(5-Fluoro-2-methylphenyl)-2,2,5-trimethyl-3-(5-phenyl-1H-pyrrolo[2,3-c]pyridin-2-ylmethyl)hexan-3-ol] | agonists
Cc1ccc(F)cc1C(C)(C)CC(O)(Cc1[nH]c2cnccc2c1C)C(C)(C)C (stereo not drawn) [5-(5-Fluoro-2-methylphenyl)-2,2,5-trimethyl-3-(3-methyl-1H-pyrrolo[2,3-c]pyridin-2-ylmethyl)hexan-3-ol] | agonists
COc1ccc(F)cc1C(C)(C)CC(O)(Cc1cc2ccncc2[nH]1)C(C)C (stereo not drawn) [5-(5-Fluoro-2-methoxyphenyl)-2,5-dimethyl-3-(1H-pyrrolo[2,3-c]pyridin-2-ylmethyl)hexan-3-ol] | agonists
COc1ccc(-c2ccccc2Cl)cc1C(C)(C)CC(O)(Cc1cc2cc(N3CCCCC3)ncc2[nH]1)C(F)(F)F (stereo not drawn) [4-(2′-Chloro-4-methoxybiphenyl-3-yl)-1,1,1-trifluoro-4-methyl-2-(5-piperidin-1-yl-1H-pyrrolo[2,3-c]pyridin-2-ylmethyl)pentan-2-ol] | potent agonists
COc1ccc(-c2cccnc2)cc1C(C)(C)CC(O)(Cn1ccc2c1CCCC2=O)C(F)(F)F (stereo not drawn) [1-[2-Hydroxy-4-(2-methoxy-5-pyridin-3-ylphenyl)-4-methyl-2-trifluoromethylpentyl]-1,5,6,7-tetrahydroindol-4-one] | agonists
COc1ccc(F)cc1C(C)(C)CC(O)(Cc1cc2cnccc2[nH]1)C(C)(C)C (stereo not drawn) [5-(5-Fluoro-2-methoxyphenyl)-2,2,5-trimethyl-3-(1H-pyrrolo[3,2-c]pyridin-2-ylmethyl)hexan-3-ol] | agonists
Cc1ccc(F)cc1C(C)(C)CC(O)(Cc1cc2ccncc2[nH]1)C1CC1 (stereo not drawn) [2-Cyclopropyl-4-(5-fluoro-2-methylphenyl)-4-methyl-1-(1H-pyrrolo[2,3-c]pyridin-2-yl)pentan-2-ol] | agonists
CC(C)(CC(O)(Cc1cc2cc(-c3ccccc3)nnc2[nH]1)C(F)(F)F)c1cc(Cl)cc2c1OCC2 (stereo not drawn) [4-(5-Chloro-2,3-dihydrobenzofuran-7-yl)-1,1,1-trifluoro-4-methyl-2-(3-phenyl-7H-pyrrolo[2,3-c]pyridazin-6-ylmethyl)pentan-2-ol] | potent agonists
CC(C)(CC(O)(Cc1cc2ccncc2[nH]1)C(F)(F)F)c1cccc(C2OCCCO2)c1 (stereo not drawn) [4-(3-[1,3]Dioxan-2-ylphenyl)-1,1,1-trifluoro-4-methyl-2-(1H-pyrrolo[2,3-c]pyridin-2-ylmethyl)pentan-2-ol] | potent agonists
CC(C)(CC(O)(Cc1cc2ccncc2[nH]1)C(F)(F)F)c1cc(-c2ccccc2)ccc1O (stereo not drawn) [3-[4,4,4-Trifluoro-3-hydroxy-1,1-dimethyl-3-(1H-pyrrolo[2,3-c]pyridin-2-ylmethyl)butyl]biphenyl-4-ol] | potent agonists
Cc1ccc(F)cc1C(C)(C)CC(O)(Cc1cc2cc(-c3ccccc3)ncc2[nH]1)C(C)C (stereo not drawn) [5-(5-Fluoro-2-methylphenyl)-2,5-dimethyl-3-(5-phenyl-1H-pyrrolo[2,3-c]pyridin-2-ylmethyl)hexan-3-ol] | agonists
COc1ccc(-c2cccnc2)cc1C(C)(C)CC(O)(Cc1cc2ccncc2[nH]1)C(F)(F)F (stereo not drawn) [1,1,1-Trifluoro-4-(2-methoxy-5-pyridin-3-ylphenyl)-4-methyl-2-(1H-pyrrolo[2,3-c]pyridin-2-ylmethyl)pentan-2-ol] | potent agonists
Cc1cccc2[nH]c(CC(O)(CC(C)(C)c3cc(S(C)(=O)=O)cc4c3OCC4)C(F)(F)F)cc12 (stereo not drawn) [1,1,1-Trifluoro-4-(5-methanesulfonyl-2,3-dihydrobenzofuran-7-yl)-4-methyl-2-(4-methyl-1H-indol-2-ylmethyl)pentan-2-ol] | potent agonists
CCC(C)(C)C(O)(Cc1cc2ccncc2[nH]1)CC(C)(C)c1cc(F)ccc1OC (stereo not drawn) [2-(5-Fluoro-2-methoxyphenyl)-2,5,5-trimethyl-4-(1H-pyrrolo[2,3-c]pyridin-2-ylmethyl)heptan-4-ol] | agonists
CC(C)(CC(O)(Cc1cc2cc(-c3ccncc3)ccc2[nH]1)C(F)(F)F)c1cc(F)cc2c1OCC2 (stereo not drawn) [1,1,1-Trifluoro-4-(5-fluoro-2,3-dihydrobenzofuran-7-yl)-4-methyl-2-(5-pyridin-4-yl-1H-indol-2-ylmethyl)pentan-2-ol] | potent agonists
CC(C)(CC(O)(Cc1cc2ccncc2[nH]1)C1CC1)c1cc(Cl)cc2c1OCC2 (stereo not drawn) [4-(5-Chloro-2,3-dihydrobenzofuran-7-yl)-2-cyclopropyl-4-methyl-1-(1H-pyrrolo[2,3-c]pyridin-2-yl)pentan-2-ol] | agonists
CSc1cc2c(c(C(C)(C)CC(O)(Cn3ccc4ncccc43)C(F)(F)F)c1)OCC2 (stereo not drawn) [1,1,1-Trifluoro-4-methyl-4-(5-methylsulfanyl-2,3-dihydrobenzofuran-7-yl)-2-pyrrolo[3,2-b]pyridin-1-ylmethylpentan-2-ol] | potent agonists
Cc1c(CC(O)(CC(C)(C)c2ccc(F)cc2O)C(F)(F)F)[nH]c2cnccc12 (stereo not drawn) [5-Fluoro-2-[4,4,4-trifluoro-3-hydroxy-1,1-dimethyl-3-(3-methyl-1H-pyrrolo[2,3-c]pyridin-2-ylmethyl)butyl]phenol] | potent agonists
